Laboratory results published in article PMC4268243 (Nuclear medicine and biology, 2014).

Legend:
[1] = system: A549 lung adenocarcinoma cells; experiment: Amino acid uptake and inhibition in A549 cells; type: cell-based, human; conditions: A549, 30 minutes incubation
[2] = system: DU145 androgen-independent prostate carcinoma cells; experiment: Amino acid uptake and inhibition in DU145 cells; type: cell-based, human; conditions: DU145, 30 minutes incubation
[3] = system: U87 glioblastoma cells; experiment: Amino acid uptake and inhibition in U87 cells; type: cell-based, human; conditions: for Cell uptake: U87, 30 minutes incubation
[4] = system: MDA MB468 estrogen-independent breast carcinoma cells; experiment: Amino acid uptake and inhibition in MDA MB468 cells; type: cell-based, human; conditions: MDA MB468, 30 minutes incubation
[5] = system: SKOV3 estrogen-positive ovarian adenocarcinoma cells; experiment: Amino acid uptake and inhibition in SKOV3 cells; type: cell-based, human; conditions: for Cell uptake: SKOV3, 30 minutes incubation
[6] = system: A549 tumor xenograft; experiment: Biodistribution in A549 tumor-bearing SCID mice; type: in vivo; conditions: listed as (R)-[^18F] FAMP 1
[7] = system: SKOV3 tumor xenograft; experiment: Biodistribution in SKOV3 tumor-bearing SCID mice; type: in vivo; conditions: listed as (R)-[^18F] FAMP 1
[8] = system: human A549, DU145, U87, MDA MB468 and SKOV3 tumor cells; experiment: Amino acid uptake and inhibition, summary over the five tumor cell lines; type: cell-based
[9] = system: SCID mice xenograft tumor models; type: in vivo; conditions: in most cases, over tumors and time points
[10] = system: rat orthotopic brain tumor model; conditions: rat orthotopic brain tumor model, 60 min; cited from earlier work

Work on `CC(N)(C[18F])C(=O)O` [(R)-[^18F]1] [2-amino-3-[^18F]fluoro-2-methylpropanoic acid] yielded a Cell uptake ([1]; 10 mM BCH) of 2.3±0.3 % ID/5×10^5 cells, a Cell uptake ([1]; 10 mM MeAIB) of 4.6±0.5 % ID/5×10^5 cells and a Cell uptake ([1]; Control (no inhibitor)) of 5.1±0.3 % ID/5×10^5 cells. It also gave a Cell uptake ([2]; 10 mM BCH) of 3.3±0.2 % ID/5×10^5 cells, a Cell uptake ([2]; 10 mM MeAIB) of 3.6±0.2 % ID/5×10^5 cells and a Cell uptake ([2]; Control (no inhibitor)) of 5.1±0.1 % ID/5×10^5 cells. The Cell uptake ([3]; 10 mM BCH) was 4.8±0.3 % ID/5×10^5 cells, the Cell uptake ([3]; 10 mM MeAIB) was 2.0±0.3 % ID/5×10^5 cells and the Cell uptake ([3]; Control (no inhibitor)) was 6.0±0.3 % ID/5×10^5 cells. The “inhibition of uptake by BCH” value ([3]; U87 cells, 10 mM BCH, relative to control) was 20%, the “inhibition of uptake by MeAIB” value ([3]; U87 cells, 10 mM MeAIB, relative to control) was 67% and the Cell uptake ([4]; 10 mM BCH) was 3.0±0.4 % ID/5×10^5 cells. It also gave a Cell uptake ([4]; 10 mM MeAIB) of 4.4±0.2 % ID/5×10^5 cells, a Cell uptake ([4]; Control (no inhibitor)) of 5.7±0.3 % ID/5×10^5 cells and a Cell uptake ([5]; 10 mM BCH) of 7.6±0.2 % ID/5×10^5 cells. For the same compound, the Cell uptake ([5]; 10 mM MeAIB) was 4.6±0.1 % ID/5×10^5 cells, the Cell uptake ([5]; Control (no inhibitor)) was 9.2±0.2 % ID/5×10^5 cells and the “inhibition of uptake by BCH” value ([5]; SKOV3 cells, 10 mM BCH, relative to control) was 17%. The “inhibition of uptake by MeAIB” value ([5]; SKOV3 cells, 10 mM MeAIB, relative to control) was 50%, the uptake in blood ([6]; 15 min post injection) was 2.9±0.4 %ID/g and the uptake in bone ([6]; 15 min post injection) was 2.6±0.6 %ID/g. It also gave an uptake in brain ([6]; 15 min post injection) of 0.8±0.2 %ID/g, an uptake in heart ([6]; 15 min post injection) of 4.4±01.0 %ID/g and an uptake in kidney ([6]; 15 min post injection) of 18±3.5 %ID/g. It also gave an uptake in liver ([6]; 15 min post injection) of 4.8±0.5 %ID/g, an uptake in lung ([6]; 15 min post injection) of 5.0±0.9 %ID/g and an uptake in muscle ([6]; 15 min post injection) of 2.0±0.4 %ID/g. For the same compound, the uptake in pancreas ([6]; 15 min post injection) was 54±14 %ID/g, the uptake in spleen ([6]; 15 min post injection) was 9.5±3.9 %ID/g and the uptake in tumor ([6]; 15 min post injection) was 9.9±1.7 %ID/g. For the same compound, the uptake in blood ([6]; 30 min post injection) was 2.0±0.2 %ID/g, the uptake in bone ([6]; 30 min post injection) was 2.3±0.6 %ID/g and the uptake in brain ([6]; 30 min post injection) was 0.9±0.2 %ID/g. It also gave an uptake in heart ([6]; 30 min post injection) of 3.5±1.0 %ID/g, an uptake in kidney ([6]; 30 min post injection) of 10±1.9 %ID/g and an uptake in liver ([6]; 30 min post injection) of 5.7±1.2 %ID/g. The uptake in lung ([6]; 30 min post injection) was 3.1±1.0 %ID/g, the uptake in muscle ([6]; 30 min post injection) was 2.0±0.6 %ID/g and the uptake in pancreas ([6]; 30 min post injection) was 43±11 %ID/g. It also gave an uptake in spleen ([6]; 30 min post injection) of 7.8±1.6 %ID/g, an uptake in tumor ([6]; 30 min post injection) of 7.5±1.9 %ID/g and an uptake in blood ([6]; 60 min post injection) of 1.3±0.1 %ID/g. For the same compound, the uptake in bone ([6]; 60 min post injection) was 2.0±0.6 %ID/g, the uptake in brain ([6]; 60 min post injection) was 1.1±0.3 %ID/g and the uptake in heart ([6]; 60 min post injection) was 3.5±0.9 %ID/g. The uptake in kidney ([6]; 60 min post injection) was 6.6±1.0 %ID/g, the uptake in liver ([6]; 60 min post injection) was 5.3±1.1 %ID/g and the uptake in lung ([6]; 60 min post injection) was 2.3±0.5 %ID/g. For the same compound, the uptake in muscle ([6]; 60 min post injection) was 1.8±0.2 %ID/g, the uptake in pancreas ([6]; 60 min post injection) was 28±6.3 %ID/g and the uptake in spleen ([6]; 60 min post injection) was 5.1±1.8 %ID/g. It also gave an uptake in tumor ([6]; 60 min post injection) of 7.7±1.9 %ID/g, an uptake in blood ([6]; 120 min post injection) of 1.3±0.9 %ID/g and an uptake in bone ([6]; 120 min post injection) of 2.2±1.1 %ID/g. The uptake in brain ([6]; 120 min post injection) was 1.8±0.9 %ID/g, the uptake in heart ([6]; 120 min post injection) was 3.9±1.5 %ID/g and the uptake in kidney ([6]; 120 min post injection) was 5.5±3.1 %ID/g. For the same compound, the uptake in liver ([6]; 120 min post injection) was 7.1±2.4 %ID/g, the uptake in lung ([6]; 120 min post injection) was 1.9±0.6 %ID/g and the uptake in muscle ([6]; 120 min post injection) was 2.3±1.2 %ID/g. It also gave an uptake in pancreas ([6]; 120 min post injection) of 20±7.1 %ID/g, an uptake in spleen ([6]; 120 min post injection) of 4.9±3.1 %ID/g and an uptake in tumor ([6]; 120 min post injection) of 8.8±4.8 %ID/g. It also gave an uptake in bone ([7]; 15 min post injection) of 2.6±1.0 %ID/g, an uptake in brain ([7]; 15 min post injection) of 0.7±0.4 %ID/g and an uptake in heart ([7]; 15 min post injection) of 4.0±2.1 %ID/g. For the same compound, the uptake in kidney ([7]; 15 min post injection) was 17±4.5 %ID/g, the uptake in liver ([7]; 15 min post injection) was 4.6±2.5 %ID/g and the uptake in lung ([7]; 15 min post injection) was 3.9±1.3 %ID/g. It also gave an uptake in muscle ([7]; 15 min post injection) of 2.3±1.1 %ID/g, an uptake in pancreas ([7]; 15 min post injection) of 38±18 %ID/g and an uptake in spleen ([7]; 15 min post injection) of 8.7±3.4 %ID/g. The uptake in tumor ([7]; 15 min post injection) was 10±4.8 %ID/g, the uptake in blood ([7]; 30 min post injection) was 2.7±0.3 %ID/g and the uptake in bone ([7]; 30 min post injection) was 2.8±0.7 %ID/g. For the same compound, the uptake in brain ([7]; 30 min post injection) was 1.0±0.04 %ID/g, the uptake in heart ([7]; 30 min post injection) was 4.9±0.1 %ID/g and the uptake in kidney ([7]; 30 min post injection) was 14±2.6 %ID/g. The uptake in liver ([7]; 30 min post injection) was 5.0±0.7 %ID/g, the uptake in lung ([7]; 30 min post injection) was 3.1±0.3 %ID/g and the uptake in muscle ([7]; 30 min post injection) was 2.8±0.3 %ID/g. For the same compound, the uptake in pancreas ([7]; 30 min post injection) was 41±7.4 %ID/g, the uptake in spleen ([7]; 30 min post injection) was 13±3.6 %ID/g and the uptake in tumor ([7]; 30 min post injection) was 14±1.1 %ID/g. It also gave an uptake in blood ([7]; 60 min post injection) of 2.1±0.1 %ID/g, an uptake in bone ([7]; 60 min post injection) of 2.3±0.3 %ID/g and an uptake in brain ([7]; 60 min post injection) of 1.0±0.3 %ID/g. It also gave an uptake in heart ([7]; 60 min post injection) of 4.9±1.1 %ID/g, an uptake in kidney ([7]; 60 min post injection) of 10±0.8 %ID/g and an uptake in liver ([7]; 60 min post injection) of 4.5±0.3 %ID/g. For the same compound, the uptake in lung ([7]; 60 min post injection) was 2.5±0.3 %ID/g, the uptake in muscle ([7]; 60 min post injection) was 2.6±0.6 %ID/g and the uptake in pancreas ([7]; 60 min post injection) was 34±4.7 %ID/g. The uptake in spleen ([7]; 60 min post injection) was 6.8±1.0 %ID/g, the uptake in tumor ([7]; 60 min post injection) was 9.0±2.2 %ID/g and the uptake in blood ([7]; 120 min post injection) was 1.5±0.2 %ID/g. The uptake in bone ([7]; 120 min post injection) was 1.9±0.4 %ID/g, the uptake in brain ([7]; 120 min post injection) was 1.2±0.2 %ID/g and the uptake in heart ([7]; 120 min post injection) was 3.6±0.6 %ID/g. For the same compound, the uptake in kidney ([7]; 120 min post injection) was 7.0±0.8 %ID/g, the uptake in liver ([7]; 120 min post injection) was 2.7±0.5 %ID/g and the uptake in lung ([7]; 120 min post injection) was 1.8±0.3 %ID/g. The uptake in muscle ([7]; 120 min post injection) was 2.0±0.4 %ID/g, the uptake in pancreas ([7]; 120 min post injection) was 19±2.4 %ID/g and the uptake in spleen ([7]; 120 min post injection) was 4.5±1.1 %ID/g. The uptake in tumor ([7]; 120 min post injection) was 6.2±0.5 %ID/g, the “inhibition of uptake by BCH” value ([8]; 10 mM BCH, relative to control, most cell lines) was 36-68% and the “inhibition of uptake by MeAIB” value ([8]; 10 mM MeAIB, relative to control, most cell lines) was 10-32%. The “uptake in tumor cells” value ([8]; 30 minutes incubation, without inhibitors, range over the cell lines) was 5-9 %ID/5×10^5 cells, the “amino acid transport system mediating uptake / selectivity” value ([8]; AAT cell inhibition assays with MeAIB and BCH) was “mixed AATs, likely but not limited to system A and system L” and the “ratio of tumor to muscle” value [9] was “above 2.5”. For the same compound, the brain uptake [10] was 0.1±0.02 %ID/g.
